Tested on: 266 human PDZ domains (PDZome)
Assay: Holdup assay (chromatographic retention, PDZome-binding profile, BI)
Parameters: key to maximal BI / Max BI / BI: binding intensity: 0.00 = no binding, 1.00 = maximal binding
Description: The holdup method is a chromatographic approach in solution developed in our group that allows to measure the binding strength of a peptide, attached to a resin, against a library of domains of a same family. We initially proposed this method to explore the interaction between PBM peptides and the human PDZ domains. Briefly, a soluble cell lysate containing individually overexpressed PDZ domain is incubated until equilibrium with a calibrated amount of streptavidin-resin saturated either with the target biotinylated PBM peptide or with biotin as a reference. The flow-throughs containing the unbound protein fraction are recovered by filtration and loaded on a capillary electrophoresis instrument to quantify the amount of remaining free PDZ. The stronger the steady-state depletion of the PDZ domain in the flow-through as compared to the reference, the stronger the PDZ/PBM binding interaction. The assay is particularly suited to quantitatively evaluate and compare large numbers of interactions. This method delivers, for each PBM/PDZ pair, a "binding intensity" (BI), whose value can in principle range from 0.00 (no binding event detected) to 1.00 (maximal binding event). The approach has been automated and the human PDZ library was recently extended to the complete 266 PDZ domains known in human proteome. […] The high accuracy and efficiency of the holdup assay have been validated previously. Very recently, a manual version of the holdup assay with purified samples and using widespread benchtop equipment has been implemented and has proven to be reliable.
The 266 PDZ domains that constitute the PDZ library (“PDZome V.2”) used in the present work were produced using constructs with optimized boundaries as described previously. All the genes were fused to Maltose-Binding Protein (MBP) or Thioredoxin (THR) tag often used to facilitate the solubilisation of the over-expressed protein, by cloning them into the pETG41A or pETG20A plasmid, respectively. […] The expressed tag-PDZ concentrations were quantified using capillary gel electrophoresis and cell lysates were diluted to reach approximately 5 μM tag-PDZ before freezing in 96-well plates. A detailed protocol of the PDZ library production, expression and benchmarking can be found in [32]. PDZ domains are named according to their originating protein name followed by the PDZ number (e.g. NHERF1-1 as the first PDZ domain of the NHERF1 protein).
The holdup assay was performed on a Tecan freedom Evo200 robot with 384-well plates in singlicate for the three 11-mer PTEN variants and the 13-mer PTEN peptide as described in [31, 32]. Briefly, prior to interaction assay, 2.5 μL of streptavidin resin was saturated in each well with 20 μL of biotinylated PBM peptides (42 μM) and then washed twice with an excess of free biotin, while the reference resin was incubated only with biotin. Right before the holdup experiment, the PDZ library was spiked with an internal standard of lysozyme. Then, the biotin- or PBM-saturated resin was incubated, each in a distinct well of a 384-well plate, with complete cell lysates diluted so that the concentration of the tag-PDZ present in the crude extract is adjusted at 4 μM. After a sufficient time to reach complex equilibrium (15 min.), a fast and mild filtration step is performed and the tag-PDZ concentrations were measured by capillary electrophoresis instrument (LabChip GXII, PerkinElmer, Massachusets, USA). Standard markers were used to convert migration time into molecular weight on the LabChip software and inappropriate molecular weight markers were corrected or excluded.
Holdup data quality check and processing […]

In the case of `CC[C@H](C)[C@H](NC(=O)[C@H](CCC(N)=O)NC(=O)[C@@H](NC(=O)[C@H](Cc1c[nH]cn1)NC(=O)[C@H](CCC(N)=O)NC(=O)[C@H](CC(=O)O)NC(=O)[C@H](CCC(=O)O)NC(=O)[C@H](CC(=O)O)NC(=O)CCC(=O)NCCCOCCOCCOCCCNC(=O)CCCC[C@@H]1SC[C@@H]2NC(=O)N[C@@H]21)[C@@H](C)O)C(=O)N[C@H](C(=O)N[C@@H](CCCCNC(C)=O)C(=O)N[C@H](C(=O)O)C(C)C)[C@@H](C)O` [PTEN_Ac], the “number of additional new PDZ partners not detected for PTEN_11” value (BI>0.20, compared with PTEN_11) is reported as “at least 20”, the BI (PDZ domain MPDZ-2) is reported as 0.353 and the BI (PDZ domain MPDZ-3) is reported as 0.002. The BI (PDZ domain MPDZ-4) was 0.029, the BI (PDZ domain MPDZ-5) was -0.014 and the BI (PDZ domain MPDZ-6) was -0.058. The BI (PDZ domain MPDZ-7) was 0.624, the BI (PDZ domain MPDZ-8) was 0.172 and the BI (PDZ domain MPDZ-9 (gene NHERF2, 2)) was 0.016. It also gave a BI (PDZ domain MPDZ-12) of 0.019, a BI (PDZ domain MPDZ-13) of 0.351 and a BI (PDZ domain MPP1-1) of -0.054. For the same molecule, the BI (PDZ domain MPP3-1) was -0.063, the BI (PDZ domain MPP4-1) was -0.043 and the BI (PDZ domain MPP5-1) was -0.048. It also gave a BI (PDZ domain MPP6-1) of -0.03, a BI (PDZ domain MPP7-1) of -0.045 and a BI (PDZ domain NHERF1-2) of 0.046. It also gave a BI (PDZ domain NHERF3-1) of 0.45, a BI (PDZ domain NHERF3-2) of 0.105 and a BI (PDZ domain NHERF3-3) of 0.021. The BI (PDZ domain NHERF3-4) was -0.017, the BI (PDZ domain NHERF4-1) was -0.007 and the BI (PDZ domain NHERF4-2) was 0.014. The BI (PDZ domain NHERF4-3) was -0.031, the BI (PDZ domain NHERF4-4) was -0.03 and the BI (PDZ domain NOS1-1) was 0.106. It also gave a BI (PDZ domain PARD3-1, first of two lines so named (r186)) of 0.035, a BI (PDZ domain PARD3-1, second of two lines so named (r187)) of -0.073 and a BI (PDZ domain PARD3-2) of 0.074. It also gave a BI (PDZ domain PARD3B-1) of -0.205, a BI (PDZ domain PARD3B-2) of -0.04 and a BI (PDZ domain PARD3B-3) of -0.007. The BI (PDZ domain PARD6A-1) was 0.007, the BI (PDZ domain PARD6G-1) was -0.034 and the BI (PDZ domain PCLO-1) was -0.088. It also gave a BI (PDZ domain PDLIM1-1) of -0.087, a BI (PDZ domain PDLIM3-1) of -0.026 and a BI (PDZ domain PDLIM4-1) of -0.03. It also gave a BI (PDZ domain PDLIM5-1) of -0.022, a BI (PDZ domain PDLIM7-1) of -0.025 and a BI (PDZ domain PDZD2-1) of -0.095. It also gave a BI (PDZ domain PDZD2-2) of 0.195, a BI (PDZ domain PDZD2-3) of 0.017 and a BI (PDZ domain PDZD2-5) of -0.091. The BI (PDZ domain PDZD2-6) was -0.026, the BI (PDZ domain PDZD4-1) was 0.085 and the BI (PDZ domain PDZD7-1) was -0.051. It also gave a BI (PDZ domain PDZD7-3) of 0.901, a BI (PDZ domain PDZD8-1) of -0.202 and a BI (PDZ domain PDZD9-1) of -0.019. For the same molecule, the BI (PDZ domain PDZD11-1) was -0.017, the BI (PDZ domain PDZRN3-1) was -0.019 and the BI (PDZ domain PDZRN3-2) was 0.016. For the same molecule, the BI (PDZ domain PDZRN4-1) was -0.064, the BI (PDZ domain PDZRN4-2) was 0.099 and the BI (PDZ domain PICK1-1) was 0.052. It also gave a BI (PDZ domain PPP1R9A-1) of 0.066, a BI (PDZ domain PPP1R9B-1) of -0.044 and a BI (PDZ domain PREX1-1) of -0.014. For the same molecule, the BI (PDZ domain PREX2-2) was 0.096, the BI (PDZ domain PRX-1) was -0.021 and the BI (PDZ domain PSCDBP-1) was -0.005. It also gave a BI (PDZ domain PSMD9-1) of -0.007, a BI (PDZ domain PTPN3-1) of 0.05 and a BI (PDZ domain PTPN4-1) of 0.02. The BI (PDZ domain PTPN13-1) was -0.024, the BI (PDZ domain PTPN13-3) was -0.028 and the BI (PDZ domain PTPN13-5) was -0.046. The BI (PDZ domain RADIL-1) was 0.522, the BI (PDZ domain RAPGEF2-1) was -0.076 and the BI (PDZ domain RAPGEF6-1) was 0.035. The BI (PDZ domain RGS3-1) was -0.001, the BI (PDZ domain RGS12-1) was 0.033 and the BI (PDZ domain RHPN2-1) was -0.044. It also gave a BI (PDZ domain RIMS1-1) of -0.02, a BI (PDZ domain RIMS2-1) of -0.022 and a BI (PDZ domain SCRIB-2) of 0.163. It also gave a BI (PDZ domain SCRIB-4) of 0.058, a BI (PDZ domain SDCBP2-2) of -0.013 and a BI (PDZ domain SDCBP-2) of -0.05. It also gave a BI (PDZ domain SHANK1-1) of 0.152, a BI (PDZ domain SHANK2-1) of 0.209 and a BI (PDZ domain SHANK3-1) of 0.235. The BI (PDZ domain SHROOM2-1) was -0.072, the BI (PDZ domain SHROOM3-1) was -0.048 and the BI (PDZ domain SHROOM4-1) was -0.073. It also gave a BI (PDZ domain SIPA1L2-1) of -0.001, a BI (PDZ domain SIPA1L3-1) of -0.046 and a BI (PDZ domain SNTA1-1) of 0.41. The BI (PDZ domain SNTB1-1) was 0.548, the BI (PDZ domain SNTG1-1) was 0.345 and the BI (PDZ domain SNTG2-1) was -0.077. For the same molecule, the BI (PDZ domain STXB4-1) was -0.072, the BI (PDZ domain SYNJ2BP-1) was 0.023 and the BI (PDZ domain SYNP2-1) was 0.005. It also gave a BI (PDZ domain SYNPO2L-1) of 0.063, a BI (PDZ domain TIAM1-1) of -0.072 and a BI (PDZ domain TIAM2-1) of -0.008. For the same molecule, the BI (PDZ domain TJP1-1) was 0.198, the “number of PDZ domains identified as potential binders (BI>0.20)” value (holdup, singlicate, threshold BI>0.20) was 43 PDZ domains and the “maximal BI” value (holdup, singlicate, highest BI in the PDZome profile, BI standard error ~0.07) was 0.90. The “binding of several PDZ domains (in words)” value (including several ones from MAGI and NHERF) was “detectably bound”, the “Max BI” value (maximum over PDZome) was 0.90 and the “number of partners detected for PTEN_Ac and not for PTEN_KR” value (over a total of 43) was 15.

— paper PMC7774954, “Interactomic affinity profiling by holdup assay: Acetylation and distal residues impact the PDZome-binding specificity of PTEN phosphatase” (PLoS ONE, 2020)
